Measurements: patent publication US9988400B2 (Genentech, Inc., priority 2013, dated 2018)

Biological target: T1, HEK cells stably transfected with tetracycline inducible hNR1 and hNR2A (Homo sapiens, UniProt Q05586+Q12879)
T1 construct: expressed in transfected cells; host or cells: HEK cells, stably transfected, tetracycline/doxycycline inducible
Assay: Assay 1: Cell-Based Assay, cytosolic calcium response to positive allosteric modulators (with 30 μM glycine and 300 nM L-glutamate, EC30)
Details: Table 2; for EC50: cytosolic calcium response, with 30 μM glycine and 300 nM L-glutamate (EC30), — = no plateau was reached; for Max %: responses scaled relative to 100 μM L-glutamate maximal response (100%) and 0 μM L-glutamate (0%)
Outline: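 Cells induced 24 h with 7.5 μg mL^−1 doxycycline plus 500 μM (+)-ketamine, loaded 60 min at 37 °C with calcium dye in Mg-free HBSS (1.8 mM Ca, probenecid, 10 μM (+)-ketamine, pH 7.15). Peak RFU over 5 min after compound addition, scaled to 100 μM L-glutamate (100%) and 0 μM (0%); four-parameter Hill fit for EC50, max % if no plateau.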

T1 sequence (Q12879 23-1464, other chains not shown): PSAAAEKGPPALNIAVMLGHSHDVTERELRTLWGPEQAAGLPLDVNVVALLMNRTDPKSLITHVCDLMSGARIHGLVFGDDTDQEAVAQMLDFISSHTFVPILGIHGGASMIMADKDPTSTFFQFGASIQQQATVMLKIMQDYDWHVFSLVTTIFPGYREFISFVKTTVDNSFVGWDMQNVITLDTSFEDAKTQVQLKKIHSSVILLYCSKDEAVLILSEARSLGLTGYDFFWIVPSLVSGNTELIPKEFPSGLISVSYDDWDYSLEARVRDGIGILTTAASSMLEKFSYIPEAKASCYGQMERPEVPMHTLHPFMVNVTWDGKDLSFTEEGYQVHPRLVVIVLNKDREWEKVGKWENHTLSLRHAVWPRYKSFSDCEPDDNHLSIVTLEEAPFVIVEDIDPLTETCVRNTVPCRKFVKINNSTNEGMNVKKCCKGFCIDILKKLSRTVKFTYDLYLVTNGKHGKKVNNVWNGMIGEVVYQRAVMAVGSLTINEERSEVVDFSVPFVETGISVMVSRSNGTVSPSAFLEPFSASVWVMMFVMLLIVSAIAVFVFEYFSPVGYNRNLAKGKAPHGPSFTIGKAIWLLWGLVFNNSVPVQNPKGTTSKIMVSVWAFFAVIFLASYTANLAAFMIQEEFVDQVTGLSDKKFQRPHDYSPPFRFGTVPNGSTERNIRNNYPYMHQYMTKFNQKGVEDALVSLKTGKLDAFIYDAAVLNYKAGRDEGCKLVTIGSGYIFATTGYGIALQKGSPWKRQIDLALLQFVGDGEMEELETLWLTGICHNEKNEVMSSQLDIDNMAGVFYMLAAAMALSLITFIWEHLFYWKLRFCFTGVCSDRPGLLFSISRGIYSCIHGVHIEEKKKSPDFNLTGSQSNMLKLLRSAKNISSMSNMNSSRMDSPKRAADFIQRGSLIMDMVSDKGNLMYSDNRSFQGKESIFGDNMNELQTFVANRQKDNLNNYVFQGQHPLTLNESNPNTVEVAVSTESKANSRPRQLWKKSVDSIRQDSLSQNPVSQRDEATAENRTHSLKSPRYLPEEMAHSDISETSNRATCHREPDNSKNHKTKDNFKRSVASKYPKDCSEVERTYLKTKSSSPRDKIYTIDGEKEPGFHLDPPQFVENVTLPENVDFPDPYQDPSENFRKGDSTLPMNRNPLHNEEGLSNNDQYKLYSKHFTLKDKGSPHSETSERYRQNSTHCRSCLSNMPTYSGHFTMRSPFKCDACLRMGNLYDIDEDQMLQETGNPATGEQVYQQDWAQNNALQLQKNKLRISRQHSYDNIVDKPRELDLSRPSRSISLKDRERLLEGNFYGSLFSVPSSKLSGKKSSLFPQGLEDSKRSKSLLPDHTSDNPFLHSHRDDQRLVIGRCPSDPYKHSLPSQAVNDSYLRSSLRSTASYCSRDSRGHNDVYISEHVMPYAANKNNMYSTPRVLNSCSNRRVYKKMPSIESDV

Row | SMILES | EC50 | Max %
1 | CCNC(=O)c1c(C2CC2)sc2nc(Cn3nc(C(F)(F)F)cc3C3CC3)cc(=O)n12 [Example 16.6, 2-cyclopropyl-7-((5-cyclopropyl-3-(trifluoromethyl)-1H-pyrazol-1-yl)methyl)-N-ethyl-5-oxo-5H-thiazolo[3,2-a]pyrimidine-3-carboxamide] | 5.5 µM | 140%
2 | CCNC(=O)c1c(C2CC2)sc2nc(Cn3nc(C4CC4)cc3C(F)(F)F)cc(=O)n12 [Example 16.7, 2-cyclopropyl-7-((3-cyclopropyl-5-(trifluoromethyl)-1H-pyrazol-1-yl)methyl)-N-ethyl-5-oxo-5H-thiazolo[3,2-a]pyrimidine-3-carboxamide] | 36.2 µM | 67.5%
3 | Cc1sc2nc(Cn3ccc(C(F)(F)F)n3)cc(=O)n2c1C#N [Example 17.1, 2-methyl-5-oxo-7-((3-(trifluoromethyl)-1H-pyrazol-1-yl)methyl)-5H-thiazolo[3,2-a]pyrimidine-3-carbonitrile] | – | 107%
4 | Cc1sc2nc(Cn3nc(C(F)(F)F)cc3C3CC3)cc(=O)n2c1C#N [Example 17.2, 7-((5-cyclopropyl-3-(trifluoromethyl)-1H-pyrazol-1-yl)methyl)-2-methyl-5-oxo-5H-thiazolo[3,2-a]pyrimidine-3-carbonitrile] | 2 µM | 119%
5 | Cc1sc2nc(Cn3nc(C4CC4)cc3C(F)(F)F)cc(=O)n2c1C#N [Example 17.3, 7-((3-cyclopropyl-5-(trifluoromethyl)-1H-pyrazol-1-yl)methyl)-2-methyl-5-oxo-5H-thiazolo[3,2-a]pyrimidine-3-carbonitrile] | – | 104%
6 | Cc1sc2nc(Cn3ccc(C(F)(F)F)n3)cc(=O)n2c1C(C)O (centres unmarked) [Example 18.1, 3-(1-hydroxyethyl)-2-methyl-7-((3-(trifluoromethyl)-1H-pyrazol-1-yl)methyl)-5H-thiazolo[3,2-a]pyrimidin-5-one] | – | 94.8%
7 | CC(=O)c1c(C)sc2nc(Cn3nc(C(F)(F)F)cc3C3CC3)cc(=O)n12 [Example 18.2, 3-acetyl-7-((5-cyclopropyl-3-(trifluoromethyl)-1H-pyrazol-1-yl)methyl)-2-methyl-5H-thiazolo[3,2-a]pyrimidin-5-one] | 2.2 µM | 144%
8 | CC(=O)c1c(C)sc2nc(Cn3nc(C4CC4)cc3C(F)(F)F)cc(=O)n12 [Example 18.3, 3-acetyl-7-((3-cyclopropyl-5-(trifluoromethyl)-1H-pyrazol-1-yl)methyl)-2-methyl-5H-thiazolo[3,2-a]pyrimidin-5-one] | 25.4 µM | 129%
9 | Cc1sc2nc(Cn3ccc(C(F)(F)F)n3)cc(=O)n2c1C(C)(C)O [Example 18.4, 3-(2-hydroxypropan-2-yl)-2-methyl-7-((3-(trifluoromethyl)-1H-pyrazol-1-yl)methyl)-5H-thiazolo[3,2-a]pyrimidin-5-one] | – | 127%
10 | Cc1sc2nc(Cn3nc(C)c4cc(F)ccc43)cc(=O)n2c1C(C)O (centres unmarked) [Example 18.5, 7-((5-fluoro-3-methyl-1H-indazol-1-yl)methyl)-3-(1-hydroxyethyl)-2-methyl-5H-thiazolo[3,2-a]pyrimidin-5-one] | – | 40.7%
11 | CNC(=O)c1c(C)sc2nc(Cc3cccc(C(F)(F)F)c3F)cc(=O)n12 [Example 21.4] | 7.4 µM | 129%

The next lines start with the values.

Row | EC50 | Max % | SMILES
12 | – | 64.2% | Cc1sc2nc(C(C)n3nc(C(F)(F)F)cc3C3CC3)cc(=O)n2c1C1(C)CC1CO (centres unmarked) [Example 19.2, 7-(1-(5-cyclopropyl-3-(trifluoromethyl)-1H-pyrazol-1-yl)ethyl)-3-(2-(hydroxymethyl)-1-methylcyclopropyl)-2-methyl-5H-thiazolo[3,2-a]pyrimidin-5-one]
13 | 3.1 µM | 137% | Cc1sc2nc(Cc3cccc(C#N)c3)cc(=O)n2c1C1CC1CO (stereo not drawn) [Example 20.1, 3-((3-(trans-2-(hydroxymethyl)cyclopropyl)-2-methyl-5-oxo-5H-thiazolo[3,2-a]pyrimidin-7-yl)methyl)benzonitrile]
14 | 7.4 µM | 145% | Cc1sc2nc(Cc3cccc(C#N)c3)c(F)c(=O)n2c1C1CC1CO (centres unmarked) [Example 20.2, 3-((6-fluoro-3-(2-(hydroxymethyl)cyclopropyl)-2-methyl-5-oxo-5H-thiazolo[3,2-a]pyrimidin-7-yl)methyl)benzonitrile]
15 | 31.2 µM | 78.7% | Cc1sc2nc(Cc3ccc(C(F)(F)F)cc3)cc(=O)n2c1C1CC1CO (centres unmarked) [Example 20.11, 3-(2-(hydroxymethyl)cyclopropyl)-2-methyl-7-(4-(trifluoromethyl)benzyl)-5H-thiazolo[3,2-a]pyrimidin-5-one]
16 | – | 96.6% | CNC(=O)c1c(C)sc2nc(Cc3cccc(C#N)c3)cc(=O)n12 [Example 21.1, 7-(3-cyanobenzyl)-N,2-dimethyl-5-oxo-5H-thiazolo[3,2-a]pyrimidine-3-carboxamide]
17 | 21.6 µM | 133% | CNC(=O)c1c(C)sc2nc(Cc3cccc(C#N)c3F)cc(=O)n12 [Example 21.2, 7-(3-cyano-2-fluorobenzyl)-N,2-dimethyl-5-oxo-5H-thiazolo[3,2-a]pyrimidine-3-carboxamide]
18 | 7.6 µM | 131% | CCNC(=O)c1c(C)sc2nc(Cc3cccc(Cl)c3F)cc(=O)n12 [Example 21.3, 7-(3-chloro-2-fluorobenzyl)-N-ethyl-2-methyl-5-oxo-5H-thiazolo[3,2-a]pyrimidine-3-carboxamide]
19 | 18.9 µM | 124% | CCNC(=O)c1c(C)sc2nc(Cc3cccc(C)c3F)cc(=O)n12 [Example 21.5, N-ethyl-7-(2-fluoro-3-methylbenzyl)-2-methyl-5-oxo-5H-thiazolo[3,2-a]pyrimidine-3-carboxamide]
20 | 45.3 µM | 114% | CCNC(=O)c1c(C)sc2nc(Cc3cc(C#N)ccc3Cl)cc(=O)n12 [Example 21.6, 7-(2-chloro-5-cyanobenzyl)-N-ethyl-2-methyl-5-oxo-5H-thiazolo[3,2-a]pyrimidine-3-carboxamide]
21 | – | 100% | CCNC(=O)c1c(C)sc2nc(Cc3cccc(C(F)(F)F)c3)cc(=O)n12 [Example 21.7, N-ethyl-2-methyl-5-oxo-7-(3-(trifluoromethyl)benzyl)-5H-thiazolo[3,2-a]pyrimidine-3-carboxamide]
22 | – | 99.3% | CCNC(=O)c1c(C)sc2nc(Cc3cccc(C#N)c3)cc(=O)n12 [Example 21.8, 7-(3-cyanobenzyl)-N-ethyl-2-methyl-5-oxo-5H-thiazolo[3,2-a]pyrimidine-3-carboxamide]
23 | – | 90.1% | CCNC(=O)c1c(C2CC2)sc2nc(Cc3cccc(C#N)c3F)cc(=O)n12 [Example 21.9, 7-(3-cyano-2-fluorobenzyl)-2-cyclopropyl-N-ethyl-5-oxo-5H-thiazolo[3,2-a]pyrimidine-3-carboxamide]
24 | – | 70.3% | CCNC(=O)c1c(C)sc2nc(Cc3cc(F)cc(C#N)c3)cc(=O)n12 [Example 21.10, 7-(3-cyano-5-fluorobenzyl)-N-ethyl-2-methyl-5-oxo-5H-thiazolo[3,2-a]pyrimidine-3-carboxamide]
25 | – | 47% | CCNC(=O)c1c(C)sc2nc(Cc3cccc(C#N)c3)cc(=O)n12 [Example 21.11, 7-(3-cyanobenzyl)-N-ethyl-2-methyl-5-oxo-5H-thiazolo[3,2-a]pyrimidine-3-carboxamide]
